Results: ChEMBL document CHEMBL4477225, “Development of a cell viability assay to assess drug metabolite structure-toxicity relationships” (Bioorg Med Chem Lett, 2016)

How the values were obtained:
Format in all cases: ADME, cell-based
Cytochrome P450 2C9 [1] = target: T1, Cytochrome P450 2C9 (Homo sapiens, UniProt P11712); assay: (§1) Drug activation in human Hep3B cells assessed as human CYP2C9-mediated drug metabolism-induced cytotoxicity measured as decrease in cell viability at 28.5 uM pre-incubated with BSO for 18 hrs followed by incubation with compound for 3 hrs in presence of NADPH measured after 24 hrs in absence of compound, CYP3A4 and NADPH by cell titer-glo luminescence assay relative to BSO alone; settings: recombinant enzyme
T1 sequence (P11712 whole entry): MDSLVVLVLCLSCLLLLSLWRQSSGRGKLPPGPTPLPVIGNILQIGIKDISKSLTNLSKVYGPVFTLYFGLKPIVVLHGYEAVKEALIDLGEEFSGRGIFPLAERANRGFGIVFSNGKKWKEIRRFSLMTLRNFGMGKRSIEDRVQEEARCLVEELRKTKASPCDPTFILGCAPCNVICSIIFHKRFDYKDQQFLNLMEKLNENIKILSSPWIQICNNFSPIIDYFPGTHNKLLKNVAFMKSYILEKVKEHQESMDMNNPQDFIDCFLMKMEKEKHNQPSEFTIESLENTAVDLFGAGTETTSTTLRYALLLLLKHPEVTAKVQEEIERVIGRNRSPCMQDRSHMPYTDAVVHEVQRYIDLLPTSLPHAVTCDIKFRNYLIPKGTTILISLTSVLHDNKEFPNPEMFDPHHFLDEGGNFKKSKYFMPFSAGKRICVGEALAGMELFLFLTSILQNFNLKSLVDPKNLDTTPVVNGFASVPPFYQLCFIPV

Cytochrome P450 2D6 [2] = target: T2, Cytochrome P450 2D6 (Homo sapiens, UniProt P10635); assay: as §1, with “CYP2D6-mediated” for “CYP2C9-mediated”, “6.8” for “28.5”; settings: recombinant enzyme
T2 sequence (P10635 whole entry): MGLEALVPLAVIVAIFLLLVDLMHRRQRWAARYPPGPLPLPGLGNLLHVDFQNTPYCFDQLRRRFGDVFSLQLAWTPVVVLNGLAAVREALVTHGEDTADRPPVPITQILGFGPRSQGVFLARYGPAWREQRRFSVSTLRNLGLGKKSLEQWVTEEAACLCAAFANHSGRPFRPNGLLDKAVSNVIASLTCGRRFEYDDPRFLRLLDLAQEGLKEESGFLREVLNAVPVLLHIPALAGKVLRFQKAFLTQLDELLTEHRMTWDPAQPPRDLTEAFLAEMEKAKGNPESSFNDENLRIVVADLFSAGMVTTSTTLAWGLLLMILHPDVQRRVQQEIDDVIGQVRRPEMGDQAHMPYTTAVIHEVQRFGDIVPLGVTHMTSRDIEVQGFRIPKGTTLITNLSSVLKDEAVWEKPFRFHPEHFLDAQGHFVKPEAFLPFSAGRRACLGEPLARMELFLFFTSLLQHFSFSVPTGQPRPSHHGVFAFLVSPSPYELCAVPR

Cytochrome P450 3A4 [3] = target: T3, Cytochrome P450 3A4 (Homo sapiens, UniProt P08684); assay: as §1, with “CYP3A4-mediated” for “CYP2C9-mediated”, “6.5” for “28.5”; settings: recombinant enzyme
T3 sequence (P08684 whole entry): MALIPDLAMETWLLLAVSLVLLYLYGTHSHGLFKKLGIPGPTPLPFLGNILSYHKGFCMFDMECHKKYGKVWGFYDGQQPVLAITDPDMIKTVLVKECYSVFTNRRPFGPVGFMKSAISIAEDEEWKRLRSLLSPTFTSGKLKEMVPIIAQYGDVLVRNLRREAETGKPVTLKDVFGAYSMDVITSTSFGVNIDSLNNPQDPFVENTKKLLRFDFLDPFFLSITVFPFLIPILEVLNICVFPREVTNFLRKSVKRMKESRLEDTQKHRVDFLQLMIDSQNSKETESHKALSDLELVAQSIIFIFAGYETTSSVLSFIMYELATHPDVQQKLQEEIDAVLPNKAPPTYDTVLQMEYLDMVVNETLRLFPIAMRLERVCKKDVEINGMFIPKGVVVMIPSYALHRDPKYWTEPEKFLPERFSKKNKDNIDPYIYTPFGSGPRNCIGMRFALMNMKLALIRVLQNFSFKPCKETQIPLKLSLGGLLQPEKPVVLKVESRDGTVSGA

Cytochrome P450 2C9 [4] = target: T1, Cytochrome P450 2C9; assay: as §1, with “7.6” for “28.5”; settings: recombinant enzyme
Cytochrome P450 3A4 [5] = target: T3, Cytochrome P450 3A4; assay: as §1, with “CYP3A4-mediated” for “CYP2C9-mediated”, “9.6” for “28.5”; settings: recombinant enzyme
Cytochrome P450 2D6 [6] = target: T2, Cytochrome P450 2D6; assay: as §1, with “CYP2D6-mediated” for “CYP2C9-mediated”, “12.8” for “28.5”; settings: recombinant enzyme
Cytochrome P450 2D6 [7] = target: T2, Cytochrome P450 2D6; assay: as §1, with “CYP2D6-mediated” for “CYP2C9-mediated”, “130.3” for “28.5”; settings: recombinant enzyme
Cytochrome P450 2C9 [8] = target: T1, Cytochrome P450 2C9; assay: as §1, with “118.7” for “28.5”; settings: recombinant enzyme
Cytochrome P450 3A4 [9] = target: T3, Cytochrome P450 3A4; assay: as §1, with “CYP3A4-mediated” for “CYP2C9-mediated”, “89.6” for “28.5”; settings: recombinant enzyme
Cytochrome P450 2D6 [10] = target: T2, Cytochrome P450 2D6; assay: as §1, with “CYP2D6-mediated” for “CYP2C9-mediated”, “162.8” for “28.5”; settings: recombinant enzyme
Cytochrome P450 2C9 [11] = target: T1, Cytochrome P450 2C9; assay: as §1, with “200.9” for “28.5”; settings: recombinant enzyme
Cytochrome P450 3A4 [12] = target: T3, Cytochrome P450 3A4; assay: as §1, with “CYP3A4-mediated” for “CYP2C9-mediated”, “89.1” for “28.5”; settings: recombinant enzyme
Cytochrome P450 2D6 [13] = target: T2, Cytochrome P450 2D6; assay: as §1, with “CYP2D6-mediated” for “CYP2C9-mediated”, “3.4” for “28.5”; settings: recombinant enzyme
Cytochrome P450 2C9 [14] = target: T1, Cytochrome P450 2C9; assay: as §1, with “2.8” for “28.5”; settings: recombinant enzyme
Cytochrome P450 3A4 [15] = target: T3, Cytochrome P450 3A4; assay: as §1, with “CYP3A4-mediated” for “CYP2C9-mediated”, “0.3” for “28.5”; settings: recombinant enzyme
Cytochrome P450 2D6 [16] = target: T2, Cytochrome P450 2D6; assay: as §1, with “CYP2D6-mediated” for “CYP2C9-mediated”, “3” for “28.5”; settings: recombinant enzyme
Cytochrome P450 3A4 [17] = target: T3, Cytochrome P450 3A4; assay: as §1, with “CYP3A4-mediated” for “CYP2C9-mediated”, “2.2” for “28.5”; settings: recombinant enzyme
Cytochrome P450 2C9 [18] = target: T1, Cytochrome P450 2C9; assay: as §1, with “25.3” for “28.5”; settings: recombinant enzyme
Cytochrome P450 3A4 [19] = target: T3, Cytochrome P450 3A4; assay: as §1, with “CYP3A4-mediated” for “CYP2C9-mediated”, “14.9” for “28.5”; settings: recombinant enzyme
Cytochrome P450 2C9 [20] = target: T1, Cytochrome P450 2C9; assay: as §1, with “78.1” for “28.5”; settings: recombinant enzyme
Cytochrome P450 2D6 [21] = target: T2, Cytochrome P450 2D6; assay: as §1, with “CYP2D6-mediated” for “CYP2C9-mediated”, “20.8” for “28.5”; settings: recombinant enzyme
Cytochrome P450 2D6 [22] = target: T2, Cytochrome P450 2D6; assay: as §1, with “CYP2D6-mediated” for “CYP2C9-mediated”, “131.3” for “28.5”; settings: recombinant enzyme
Cytochrome P450 2C9 [23] = target: T1, Cytochrome P450 2C9; assay: as §1, with “77.6” for “28.5”; settings: recombinant enzyme
Cytochrome P450 3A4 [24] = target: T3, Cytochrome P450 3A4; assay: as §1, with “CYP3A4-mediated” for “CYP2C9-mediated”, “10.7” for “28.5”; settings: recombinant enzyme
Cytochrome P450 2D6 [25] = target: T2, Cytochrome P450 2D6; assay: as §1, with “CYP2D6-mediated” for “CYP2C9-mediated”, “66.8” for “28.5”; settings: recombinant enzyme
Cytochrome P450 2C9 [26] = target: T1, Cytochrome P450 2C9; assay: as §1, with “59.9” for “28.5”; settings: recombinant enzyme
Cytochrome P450 3A4 [27] = target: T3, Cytochrome P450 3A4; assay: as §1, with “CYP3A4-mediated” for “CYP2C9-mediated”, “37.6” for “28.5”; settings: recombinant enzyme
Cytochrome P450 2D6 [28] = target: T2, Cytochrome P450 2D6; assay: as §1, with “CYP2D6-mediated” for “CYP2C9-mediated”, “8.6” for “28.5”; settings: recombinant enzyme
Cytochrome P450 2C9 [29] = target: T1, Cytochrome P450 2C9; assay: as §1, with “14” for “28.5”; settings: recombinant enzyme
Cytochrome P450 2C9 [30] = target: T1, Cytochrome P450 2C9; assay: as §1, with “28.5” left out; settings: recombinant enzyme, 14.6 µM
Cytochrome P450 2D6 [31] = target: T2, Cytochrome P450 2D6; assay: as §1, with “CYP2D6-mediated” for “CYP2C9-mediated”, “4.8” for “28.5”; settings: recombinant enzyme
Cytochrome P450 3A4 [32] = target: T3, Cytochrome P450 3A4; assay: as §1, with “CYP3A4-mediated” for “CYP2C9-mediated”, “8.5” for “28.5”; settings: recombinant enzyme
Cytochrome P450 2D6 [33] = target: T2, Cytochrome P450 2D6; assay: as §1, with “CYP2D6-mediated” for “CYP2C9-mediated”, “15.2” for “28.5”; settings: recombinant enzyme
Cytochrome P450 2C9 [34] = target: T1, Cytochrome P450 2C9; assay: as §1, with “40.5” for “28.5”; settings: recombinant enzyme
Cytochrome P450 2C9 [35] = target: T1, Cytochrome P450 2C9; assay: as §1, with “34.1” for “28.5”; settings: recombinant enzyme
Cytochrome P450 2D6 [36] = target: T2, Cytochrome P450 2D6; assay: as §1, with “CYP2D6-mediated” for “CYP2C9-mediated”, “33.9” for “28.5”; settings: recombinant enzyme
Cytochrome P450 3A4 [37] = target: T3, Cytochrome P450 3A4; assay: as §1, with “CYP3A4-mediated” for “CYP2C9-mediated”, “25.2” for “28.5”; settings: recombinant enzyme
Cytochrome P450 2D6 [38] = target: T2, Cytochrome P450 2D6; assay: as §1, with “CYP2D6-mediated” for “CYP2C9-mediated”, “129.2” for “28.5”; settings: recombinant enzyme
Cytochrome P450 2C9 [39] = target: T1, Cytochrome P450 2C9; assay: as §1, with “210.8” for “28.5”; settings: recombinant enzyme
Cytochrome P450 3A4 [40] = target: T3, Cytochrome P450 3A4; assay: as §1, with “CYP3A4-mediated” for “CYP2C9-mediated”, “80.2” for “28.5”; settings: recombinant enzyme

## CC1=C(CC(=O)O)c2cc(F)ccc2/C1=C\c1ccc([S+](C)[O-])cc1 (configuration not stated)
Cytochrome P450 2C9 [1]
  fold change (FC): 1.6
Cytochrome P450 2D6 [2]
  fold change (FC): 6.7
Cytochrome P450 3A4 [3]
  fold change (FC): 6.9

## CCC[C@@]1(CCc2ccccc2)CC(O)=C([C@H](CC)c2cccc(NS(=O)(=O)c3ccc(C(F)(F)F)cn3)c2)C(=O)O1
Cytochrome P450 2C9 [4]
  fold change (FC): 1.6
Cytochrome P450 3A4 [5]
  fold change (FC): 1.3
Cytochrome P450 2D6 [6]
  fold change (FC): 1

## CN1CC(C(=O)N[C@]2(C)O[C@@]3(O)[C@@H]4CCCN4C(=O)[C@H](Cc4ccccc4)N3C2=O)C[C@@H]2c3cccc4[nH]cc(c34)C[C@H]21 (some centres not stated)
Cytochrome P450 2D6 [7]
  fold change (FC): 0.5
Cytochrome P450 2C9 [8]
  fold change (FC): 0.5
Cytochrome P450 3A4 [9]
  fold change (FC): 0.7

## CN1[C@@H]2CC[C@H]1C[C@@H](OC(c1ccccc1)c1ccccc1)C2 [BENZTROPINE]
Cytochrome P450 2D6 [10]
  fold change (FC): 0.7
Cytochrome P450 2C9 [11]
  fold change (FC): 0.5
Cytochrome P450 3A4 [12]
  fold change (FC): 1.2

## CC(CCc1ccc(O)cc1)NCCc1ccc(O)c(O)c1 (configuration not stated) [DOBUTAMINE]
Cytochrome P450 2D6 [13]
  fold change (FC): 89.2
Cytochrome P450 2C9 [14]
  fold change (FC): 108.1
Cytochrome P450 3A4 [15]
  fold change (FC): 1023.9

## CC(C)NCC(O)c1ccc(O)c(O)c1 (configuration not stated) [ISOPROTERENOL]
Cytochrome P450 2D6 [16]
  fold change (FC): 100.1
Cytochrome P450 3A4 [17]
  fold change (FC): 135.8
Cytochrome P450 2C9 [18]
  fold change (FC): 11.8

## CC[C@@H](CO)NC(=O)[C@@H]1C=C2c3cccc4c3c(cn4C)C[C@H]2N(C)C1 [METHYSERGIDE]
Cytochrome P450 3A4 [19]
  fold change (FC): 2.9
Cytochrome P450 2C9 [20]
  fold change (FC): 0.6
Cytochrome P450 2D6 [21]
  fold change (FC): 2.1

## CCN(CC)CC#CCOC(=O)C(O)(c1ccccc1)C1CCCCC1 (configuration not stated) [OXYBUTYNIN]
Cytochrome P450 2D6 [22]
  fold change (FC): 0.4
Cytochrome P450 2C9 [23]
  fold change (FC): 0.6
Cytochrome P450 3A4 [24]
  fold change (FC): 4.3

## CC(C)(C)NC[C@H](O)COc1ccccc1C1CCCC1 [PENBUTOLOL]
Cytochrome P450 2D6 [25]
  fold change (FC): 0.8
Cytochrome P450 2C9 [26]
  fold change (FC): 0.9
Cytochrome P450 3A4 [27]
  fold change (FC): 1.5

## CC(COc1ccccc1)N(CCCl)Cc1ccccc1 (configuration not stated) [PHENOXYBENZAMINE]
Cytochrome P450 2D6 [28]
  fold change (FC): 1.5
Cytochrome P450 3A4 [5]
  fold change (FC): 1.3
Cytochrome P450 2C9 [29]
  fold change (FC): 0.9

## COc1cc(NC(C)CCCN)c2ncccc2c1 (configuration not stated) [PRIMAQUINE]
Cytochrome P450 2C9 [30]
  FC: 5.5
Cytochrome P450 3A4 [3]
  fold change (FC): 12.3
Cytochrome P450 2D6 [31]
  fold change (FC): 16.7

## Cc1c(C)c2c(c(C)c1O)CCC(C)(COc1ccc(CC3SC(=O)NC3=O)cc1)O2 (configuration not stated) [TROGLITAZONE]
Cytochrome P450 3A4 [32]
  fold change (FC): 5.5
Cytochrome P450 2D6 [33]
  fold change (FC): 3.1
Cytochrome P450 2C9 [34]
  fold change (FC): 1.2

## COc1cc(C(=O)NS(=O)(=O)c2ccccc2C)ccc1Cc1cn(C)c2ccc(NC(=O)OC3CCCC3)cc12 [ZAFIRLUKAST]
Cytochrome P450 2C9 [35]
  fold change (FC): 1.4
Cytochrome P450 2D6 [36]
  fold change (FC): 1.4
Cytochrome P450 3A4 [37]
  fold change (FC): 1.9

## CN(C)C/C=C(/c1ccc(Br)cc1)c1cccnc1 [ZIMELDINE]
Cytochrome P450 2D6 [38]
  fold change (FC): 1.8
Cytochrome P450 2C9 [39]
  fold change (FC): 1.1
Cytochrome P450 3A4 [40]
  fold change (FC): 2.8
